Consider 21 compounds from ChEMBL document CHEMBL1681657, “P3 optimization of functional potency, in vivo efficacy and oral bioavailability in 3-aminopyrazinone thrombin inhibitors bearing non-charged groups at the P1 position” (Bioorg Med Chem Lett, 2011).

The target of one data set is Prothrombin (Homo sapiens, UniProt P00734). Kind of data set: Inhibition of thrombin.
The nature of data set [1]: Anticoagulant activity in human […] assessed as concentration required to double activated partial […] time. It counts as functional.
A short description of data set [2]: Fraction unbound in human plasma. It counts as ADME, cell-free.
The nature of data set [3]: Inhibition of trypsin.
Data set [4] is described as follows: Cmax in dog at 1 mg/kg, po. It counts as ADME, organism-based, Canis lupus familiaris. On the set-up: dose 1 mg/kg, route oral. The conditions noted are these: in vivo.
The nature of data set [5]: Half life in dog at 1 mg/kg, po. It counts as ADME, organism-based, Canis lupus familiaris. On the set-up: dose 1 mg/kg, route oral. The conditions noted are these: in vivo.
The nature of data set [6]: Cmax in rat at 10 mg/kg, po. It counts as ADME, organism-based. The conditions noted are these: in vivo. More on the design: dose 10 mg/kg, route oral.
Data set [7] in a line: Half life in rat at 10 mg/kg, po. It counts as ADME, organism-based. More on the design: dose 10 mg/kg, route oral. The conditions noted are these: in vivo.
Another data set concerns Rattus norvegicus. Put plainly: Anticoagulant activity in iv dosed ferric chloride-induced thrombosis rat model assessed as protection against thrombotic occlusion. It counts as functional, organism-based.

Active and inactive are the calls of the source.

For the compound `Cc1cnc(NCCc2ccccn2)c(=O)n1CC(=O)NCc1cc(Cl)ccc1OCC(=O)NC1CC1`, on Prothrombin, the affinity corresponds to a Ki of 0.015 nM. Further, the Activity in data set [1] was determined as 0.45 µM. In data set [2], this compound yielded a fraction unbound of 0.01.
As for `Cc1cnc(NCCc2ccccn2)c(=O)n1CC(=O)NCc1cc(Cl)ccc1OCC(F)(F)F`, the Ki at Prothrombin worked out at 0.5 nM; in [3], 32 µM. Further, in data set [1], the Activity was 0.79 µM. Moreover, the Cmax in data set [4] was 3240 nM; in data set [6] it was 1060 nM. The half-life in data set [5] was 1.3 h; in [7], 1.95 h.
On to `COc1ccc(C#N)c(CNC(=O)Cn2c(Cl)cnc(NCCc3cccc[n+]3[O-])c2=O)c1`, for which the inhibition constant (Ki) came out at 1.1 nM at Prothrombin and 278 µM in data set [3]. Further, the Activity in data set [1] worked out at 0.41 µM.
Regarding `COc1ccc(C)cc1CNC(=O)Cn1c(C)cnc(NCCc2ccccn2)c1=O`, the values for the inhibitory constant (Ki) (at Prothrombin; in data set [3]) were 8 nM and 902 µM, respectively. Moreover, the Activity in data set [1] was determined as 2.9 µM.
Take `Cc1ccc(C#N)c(CNC(=O)Cn2c(C)cnc(NCCc3ccccn3)c2=O)c1`: the inhibition constant (Ki) was found to be 1.3 nM at Prothrombin and 102 µM in data set [3]. In [1], the Activity amounted to 0.56 µM. This compound showed a Cmax in [4] of 2300 nM. In [5], this compound came in with a half-life of 0.85 h.
With `NC(C(=O)N1CCC[C@H]1C(=O)NCc1cc(Cl)ccc1OCC(=O)NC1CC1)C1CCCCC1` (single isomer, unassigned), in data set [1], the Activity turned out to be 0.42 µM. This compound returned an unbound share (fraction unbound) in data set [2] of 0.12.
`Cc1ccc(Cl)cc1CNC(=O)Cn1c(Cl)cnc(NCCc2cccc[n+]2[O-])c1=O`: the inhibition constant Ki on Prothrombin came to 1.1 nM; in [3], 94 µM. Also, the Activity in data set [1] was found to be 0.69 µM.
Take `Cc1ccc(Cl)cc1CNC(=O)Cn1c(C)cnc(NCCc2ccccn2)c1=O`: the Ki on Prothrombin was 1.1 nM; in data set [3], more than 50 µM. In data set [1], the Activity stood at 0.87 µM. The results for the highest concentration (Cmax) in [4] and in data set [6] were 2520 nM and 1290 nM, respectively. Further, the half-life in data set [5] stood at 1.18 h; in [7] it was 3.67 h.
`COc1ccc(C#N)c(CNC(=O)Cn2c(Cl)cnc(NCCc3ccccn3)c2=O)c1`: the figures for the Ki (at Prothrombin; in data set [3]) were 1.5 nM and more than 100 µM, respectively. Also, the Activity in data set [1] is 0.83 µM.
As to `Cc1cnc(NCCc2ccccn2)c(=O)n1CC(=O)NCc1cc(Cl)ccc1OCC(=O)NC1CCCNC1` (centres undefined), affinity on Prothrombin was put at a Ki of 0.125 nM. For the same compound, the Activity in data set [1] was 0.24 µM. Further, the outcome in the data set on Rattus norvegicus was Active. The unbound share (fraction unbound) in [2] was 0.12.
Regarding `O=C(Cn1c(Cl)cnc(NCCc2cccc[n+]2[O-])c1=O)NCc1cc(Cl)ccc1Cl`, the Ki at Prothrombin was determined as 0.76 nM; in data set [3], 138 µM. The Activity in data set [1] was 0.65 µM.
`COc1ccc(C#N)c(CNC(=O)Cn2c(C)cnc(NCCc3ccccn3)c2=O)c1`: the figures for the Ki (on Prothrombin; in data set [3]) were 1.6 nM and more than 1000 µM, respectively. Moreover, the Activity in data set [1] was 0.72 µM. The Cmax in [4] was 2260 nM; in data set [6], 2280 nM. Further, the half-life is 1.47 h in data set [5] and 2.08 h in [7].
As to `Cc1ccc(Cl)cc1CNC(=O)Cn1c(C)cnc(NCCC2CCCCN2)c1=O` (racemic), the results for the Ki (at Prothrombin; in [3]) were 2.3 nM and 38 µM, respectively. Also, in data set [1], the Activity came to 0.44 µM. The result in the data set on Rattus norvegicus was Active.
As to `COc1ccc(Cl)cc1CNC(=O)Cn1c(Cl)cnc(NCCc2cccc[n+]2[O-])c1=O`, the Ki at Prothrombin amounted to 1.8 nM; in data set [3], 64 µM. In addition, the Activity in data set [1] worked out at 0.67 µM.
For `O=C(Cn1c(Cl)cnc(NCCc2cccc[n+]2[O-])c1=O)NCc1cc(Cl)ccc1OCC(F)(F)F`, the Ki at Prothrombin turned out to be 0.31 nM; in data set [3] it was 17 µM. In addition, in data set [1], the Activity is 0.6 µM.
As for `COc1ccc(Cl)cc1CNC(=O)Cn1c(C)cnc(NCCc2ccccn2)c1=O`, the Ki at Prothrombin came to 2 nM; in data set [3] it was 161 µM. Also, the Activity in [1] was 1.05 µM. In addition, the Cmax was 1480 nM in data set [4] and 570 nM in data set [6]. The half-life in data set [5] stood at 1 h; in data set [7] it was 3.73 h.
For `Cc1cnc(NCCc2ccccn2)c(=O)n1CC(=O)NCc1cc(Cl)ccc1Cl`, the Ki on Prothrombin was found to be 0.75 nM; in [3], 52 µM. Also, the Activity in [1] came to 0.98 µM.
As for `Cc1ccc(OCC(F)(F)F)c(CNC(=O)Cn2c(C)cnc(NCCc3ccccn3)c2=O)c1`, the Ki is 1.5 nM on Prothrombin and 91 µM in [3]. Also, the Activity in data set [1] was found to be 0.89 µM.
In the case of `Cc1cnc(NCCc2ccccn2)c(=O)n1CC(=O)NCc1cccc(Cl)c1`, the results for the Ki (at Prothrombin; in [3]) were 3 nM and 37 µM, respectively. Besides, the Activity in [1] was determined as 1.01 µM. The compound also gave a fraction unbound in [2] of 0.06. Also, the Cmax in data set [4] stood at 2820 nM; in [6], 2980 nM. Besides, the figures for the half-life in data set [5] and in [7] were 0.867 h and 1 h, respectively.
Turning to `COc1ccc(C#N)c(CNC(=O)Cn2c(C)cnc(NCCC3CCCCN3)c2=O)c1` (racemic), the Ki at Prothrombin was found to be 1.8 nM; in [3], 136 µM. The Activity in [1] came out at 0.27 µM. For the same compound, the result with Rattus norvegicus was Active.
The matching figures for `COc1ccc(Cl)cc1CNC(=O)Cn1c(C)cnc(NCCC2CCCCN2)c1=O` (racemic): 4.8 nM, 58.9 µM, 0.65 µM and “Active”.

One may read the Ki as a measure of affinity in units of concentration, obtained from inhibition or displacement. A high value points to a looser hold on the target. One may read the fraction unbound as free concentration divided by total concentration. Low readings indicate little free substance, high ones much free substance. Broadly, the Cmax is the peak of the concentration-time curve. As a reminder, the half-life is the time needed for the level to fall by half in the phase considered. A high value points to slow decline.
